Earlier results in patent publication US8137922B2, “Method for diagnosing the metabolic syndrome (MS)” (Hans Dieplinger, priority 2007, dated 2012).
Read-outs that look alike come from different tables or passages of the source.

Biological target: T1, afamin (Homo sapiens, UniProt P43652)
T1 sequence (P43652 22-599): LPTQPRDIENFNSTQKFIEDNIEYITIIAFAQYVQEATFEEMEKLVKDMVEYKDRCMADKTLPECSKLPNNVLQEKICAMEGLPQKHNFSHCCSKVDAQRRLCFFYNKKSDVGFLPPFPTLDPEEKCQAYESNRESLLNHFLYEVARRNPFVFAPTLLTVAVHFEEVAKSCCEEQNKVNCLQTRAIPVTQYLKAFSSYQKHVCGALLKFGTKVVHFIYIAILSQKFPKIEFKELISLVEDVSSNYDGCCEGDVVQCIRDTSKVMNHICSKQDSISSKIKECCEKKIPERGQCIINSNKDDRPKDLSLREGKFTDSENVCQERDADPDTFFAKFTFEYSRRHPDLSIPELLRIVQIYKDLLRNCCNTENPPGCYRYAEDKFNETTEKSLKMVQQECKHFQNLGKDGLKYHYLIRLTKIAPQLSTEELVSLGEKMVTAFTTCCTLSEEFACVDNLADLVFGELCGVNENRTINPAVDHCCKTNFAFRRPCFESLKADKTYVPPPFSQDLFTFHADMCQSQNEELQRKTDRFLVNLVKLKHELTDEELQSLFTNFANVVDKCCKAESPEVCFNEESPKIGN
Settings: for maximum displacement of tocopherol: 2 μM afamin, 60 μM alpha-[14C]tocopherol, 100-fold excess of non-labeled competitor

Row | Hill coefficient (calculated, indicates that afamin could bind pairs of tocopherol) | Kd (first of two binding sites, read-out: KD1, affinity of afamin for vitamin E) | Kd (second of two binding sites, read-out: KD2, affinity of afamin for vitamin E) | maximal binding (Bmax) (when both sites are activated) | Molecule | maximum displacement of tocopherol
1 | – | – | – | – | Cc1c(C)c2c(c(C)c1O)CC[C@@](C)(CCC[C@H](C)CCC[C@H](C)CCCC(C)C)O2 [alpha-tocopherol] | 80%
2 | – | – | – | – | Cc1c(O)cc2c(c1C)O[C@](C)(CCC[C@H](C)CCC[C@H](C)CCCC(C)C)CC2 [gamma-tocopherol] | 80%
3 | 1.8 | 6.3 µM | 22 µM | 18 molecules of Vitamin E | vitamin E | –
